In US20240270762A1, “PENICILLIN-BINDING PROTEIN INHIBITORS” (priority 2021, published 2024):
In brackets after ≈: the same amount, converted by molar mass.

Key:
[1] = target: T1, A. baumannii PBP1a (Acinetobacter baumannii, UniProt A0ABX6CK30); test: Bocillin-FL competition binding via gel filtration, A. baumannii PBP1a; details: competition binding assay using Bocillin-FL via gel filtration; read-out: A. baumannii PBP1a Potency
T1 sequence (A0ABX6CK30 1-851): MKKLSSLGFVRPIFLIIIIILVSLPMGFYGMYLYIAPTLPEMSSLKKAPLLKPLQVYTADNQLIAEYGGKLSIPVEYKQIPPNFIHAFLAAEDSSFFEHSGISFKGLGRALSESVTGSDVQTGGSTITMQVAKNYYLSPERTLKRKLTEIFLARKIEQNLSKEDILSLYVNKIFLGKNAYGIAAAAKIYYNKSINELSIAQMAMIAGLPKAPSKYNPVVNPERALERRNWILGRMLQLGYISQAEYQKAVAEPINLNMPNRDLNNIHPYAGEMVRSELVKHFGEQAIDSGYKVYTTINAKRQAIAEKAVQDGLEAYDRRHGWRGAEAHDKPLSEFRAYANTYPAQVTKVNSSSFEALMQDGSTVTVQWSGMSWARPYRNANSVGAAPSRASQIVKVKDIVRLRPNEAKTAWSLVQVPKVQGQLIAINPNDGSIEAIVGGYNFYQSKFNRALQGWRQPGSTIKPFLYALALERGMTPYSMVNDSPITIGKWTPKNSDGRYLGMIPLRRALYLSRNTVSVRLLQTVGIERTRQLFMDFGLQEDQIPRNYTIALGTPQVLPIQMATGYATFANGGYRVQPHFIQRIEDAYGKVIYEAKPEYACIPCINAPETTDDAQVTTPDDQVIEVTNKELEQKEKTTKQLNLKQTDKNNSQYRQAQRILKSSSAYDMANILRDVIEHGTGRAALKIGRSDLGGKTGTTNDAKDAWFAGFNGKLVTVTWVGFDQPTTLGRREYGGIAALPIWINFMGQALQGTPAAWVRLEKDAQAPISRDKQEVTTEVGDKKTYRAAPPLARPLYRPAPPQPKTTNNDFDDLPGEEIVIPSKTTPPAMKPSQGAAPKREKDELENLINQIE
How it was run: (§1)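 Competitive equilibrium binding; reporter Bocillin-FL. PBP + inhibitor (titration) pre-incubated → Bocillin-FL, 15 min → gel filtration → fluorescence. EC50 from Hill fit of fraction bound vs [inhibitor].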

[2] = system: B. pseudomallei Bp82; test: microbe, parasite or virus in culture; assay type: cell-based; details: Burkholderia pseudomallei, BP82, read-out: Minimum inhibitory concentration, B. pseudomallei Bp82
[3] = system: A. baumannii CDC-0083; test: microbe, parasite or virus in culture; assay type: cell-based; details: Acinetobacter baumannii, CDC0083, read-out: MIC, A. baumannii CDC-0083
[4] = target: A. baumannii PBP2 (Acinetobacter baumannii, UniProt D0C8Z9); test: Bocillin-FL competition binding via gel filtration, A. baumannii PBP2
How it was run: as §1

Chain of A. baumannii PBP2 (D0C8Z9 whole entry): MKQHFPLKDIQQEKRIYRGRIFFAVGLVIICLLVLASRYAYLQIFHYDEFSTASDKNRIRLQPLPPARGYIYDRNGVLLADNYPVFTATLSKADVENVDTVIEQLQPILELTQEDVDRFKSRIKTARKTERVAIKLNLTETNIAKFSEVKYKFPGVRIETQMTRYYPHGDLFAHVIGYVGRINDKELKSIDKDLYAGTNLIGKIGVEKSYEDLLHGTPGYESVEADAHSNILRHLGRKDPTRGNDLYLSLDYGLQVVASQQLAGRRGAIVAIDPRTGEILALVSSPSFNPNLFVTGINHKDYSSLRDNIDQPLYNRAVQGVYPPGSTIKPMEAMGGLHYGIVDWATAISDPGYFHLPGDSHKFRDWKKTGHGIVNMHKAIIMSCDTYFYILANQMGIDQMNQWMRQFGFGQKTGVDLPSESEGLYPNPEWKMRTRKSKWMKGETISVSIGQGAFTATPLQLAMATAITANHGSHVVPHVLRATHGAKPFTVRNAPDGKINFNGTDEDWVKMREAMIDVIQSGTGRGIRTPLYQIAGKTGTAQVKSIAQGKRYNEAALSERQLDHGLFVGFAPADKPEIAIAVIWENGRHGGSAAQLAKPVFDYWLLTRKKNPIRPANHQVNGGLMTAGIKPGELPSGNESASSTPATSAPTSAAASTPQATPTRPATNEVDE

Work on `CN(CCN1CCN(C(=O)N[C@@H](C(=O)N[C@H]2Cc3ccc(F)c(C(=O)O)c3OB2O)c2cc(F)c(O)c(O)c2Cl)C(=O)C1=O)Cc1ccc(N)nc1` [Example 209, (R)-3-((R)-2-(4-(2-(((6-aminopyridin-3-yl)methyl)(methyl)amino)ethyl)-2,3-dioxopiperazine-1-carboxamido)-2-(2-chloro-5-fluoro-3,4-dihydroxyphenyl)acetamido)-7-fluoro-2-hydroxy-3,4-dihydro-2H-benzo[e][1,2]oxaborinine-8-carboxylic acid] yielded an EC50 [1] of 10 to 50 µM, an MIC [2] of under 1 µg/mL and an MIC [3] of under 1 µg/mL.
With `O=C(NCCCN1CCN(C(=O)NC(C(=O)N[C@H]2Cc3ccc(F)c(C(=O)O)c3OB2O)c2cc(F)c(O)c(O)c2Cl)C(=O)C1=O)Nc1ccncc1` (stereo partly drawn) [Example 228, (3R)-3-(2-(2-chloro-5-fluoro-3,4-dihydroxyphenyl)-2-(2,3-dioxo-4-(3-(3-(pyridin-4-yl)ureido)propyl)piperazine-1-carboxamido)acetamido)-7-fluoro-2-hydroxy-3,4-dihydro-2H-benzo[e][1,2]oxaborinine-8-carboxylic acid] the EC50 [1] was 10 to 50 µM, the EC50 [4] was 10 to 50 µM and the MIC [2] was under 1 µg/mL. The MIC [3] was under 1 µg/mL.
With `O=C(NCCCN1CCN(C(=O)NC(C(=O)N[C@H]2Cc3ccc(F)c(C(=O)O)c3OB2O)c2cc(F)c(O)c(O)c2Cl)C(=O)C1=O)c1ccncc1` (stereo partly drawn) [Example 205, (3R)-3-(2-(2-chloro-5-fluoro-3,4-dihydroxyphenyl)-2-(4-(3-(isonicotinamido)propyl)-2,3-dioxopiperazine-1-carboxamido)acetamido)-7-fluoro-2-hydroxy-3,4-dihydro-2H-benzo[e][1,2]oxaborinine-8-carboxylic acid] the EC50 [1] was 50 to 250 µM, the EC50 [4] was 10 to 50 µM and the MIC [2] was under 1 µg/mL. The MIC [3] was under 1 µg/mL.
`O=C(NCCN1CCN(C(=O)N[C@@H](C(=O)N[C@H]2Cc3ccc(F)c(C(=O)O)c3OB2O)c2cc(F)c(O)c(O)c2Cl)C(=O)C1=O)Nc1cccnc1` [Example 222, (R)-3-((R)-2-(2-chloro-5-fluoro-3,4-dihydroxyphenyl)-2-(2,3-dioxo-4-(2-(3-(pyridin-3-yl)ureido)ethyl)piperazine-1-carboxamido)acetamido)-7-fluoro-2-hydroxy-3,4-dihydro-2H-benzo[e][1,2]oxaborinine-8-carboxylic acid] showed an EC50 [1] of 10 to 50 µM, an EC50 [4] of 10 to 50 µM and an MIC [2] of under 1 µg/mL. It also gave an MIC [3] of 32 to 64 µg/mL (≈ 42.9 to 85.8 µM).
`CN(CCN1CCN(C(=O)N[C@@H](C(=O)N[C@H]2Cc3ccc(F)c(C(=O)O)c3OB2O)c2cc(F)c(O)c(O)c2Cl)C(=O)C1=O)Cc1cccc(C(N)=O)c1` [Example 225, (R)-3-((R)-2-(4-(2-((3-carbamoylbenzyl)(methyl)amino)ethyl)-2,3-dioxopiperazine-1-carboxamido)-2-(2-chloro-5-fluoro-3,4-dihydroxyphenyl)acetamido)-7-fluoro-2-hydroxy-3,4-dihydro-2H-benzo[e][1,2]oxaborinine-8-carboxylic acid] was tested, and the EC50 [1] was 10 to 50 µM, the MIC [2] was under 1 µg/mL and the MIC [3] was under 1 µg/mL.
`O=C(NCCN1CCN(C(=O)NC(C(=O)N[C@H]2Cc3ccc(F)c(C(=O)O)c3OB2O)c2cc(F)c(O)c(O)c2Cl)C1=O)c1nccs1` (stereo partly drawn) [Example 247, (3R)-3-(2-(2-chloro-5-fluoro-3,4-dihydroxyphenyl)-2-(2-oxo-3-(2-(thiazole-2-carboxamido)ethyl)imidazolidine-1-carboxamido)acetamido)-7-fluoro-2-hydroxy-3,4-dihydro-2H-benzo[e][1,2]oxaborinine-8-carboxylic acid] showed an EC50 [4] of 10 to 50 µM, an MIC [2] of under 1 µg/mL and an MIC [3] of under 1 µg/mL.
`CN(CCN1CCN(C(=O)NC(C(=O)N[C@H]2Cc3ccc(F)c(C(=O)O)c3OB2O)c2cc(F)c(O)c(O)c2Cl)C(=O)C1=O)S(=O)(=O)c1cccc(C(N)=O)c1` (stereo partly drawn) [Example 224, (3R)-3-(2-(4-(2-((3-carbamoyl-N-methylphenyl)sulfonamido)ethyl)-2,3-dioxopiperazine-1-carboxamido)-2-(2-chloro-5-fluoro-3,4-dihydroxyphenyl)acetamido)-7-fluoro-2-hydroxy-3,4-dihydro-2H-benzo[e][1,2]oxaborinine-8-carboxylic acid] was tested, and the EC50 [1] was under 10 µM, the MIC [2] was under 1 µg/mL and the MIC [3] was 2 to 4 µg/mL (≈ 2.43 to 4.86 µM).
In the case of `O=C(NCCN1CCN(C(=O)NC(C(=O)N[C@H]2Cc3ccc(F)c(C(=O)O)c3OB2O)c2cc(F)c(O)c(O)c2Cl)C1=O)Nc1cccc(O)c1` (stereo partly drawn) [Example 249, (3R)-3-(2-(2-chloro-5-fluoro-3,4-dihydroxyphenyl)-2-(3-(2-(3-(3-hydroxyphenyl)ureido)ethyl)-2-oxoimidazolidine-1-carboxamido)acetamido)-7-fluoro-2-hydroxy-3,4-dihydro-2H-benzo[e][1,2]oxaborinine-8-carboxylic acid], the EC50 [1] is reported as 10 to 50 µM, the MIC [2] is reported as under 1 µg/mL and the MIC [3] is reported as under 1 µg/mL.
Work on `O=C(NCCN1CCN(C(=O)NC(C(=O)N[C@H]2Cc3ccc(F)c(C(=O)O)c3OB2O)c2cc(F)c(O)c(O)c2Cl)C1=O)c1ccncc1` (stereo partly drawn) [Example 245, (3R)-3-(2-(2-chloro-5-fluoro-3,4-dihydroxyphenyl)-2-(3-(2-(isonicotinamido)ethyl)-2-oxoimidazolidine-1-carboxamido)acetamido)-7-fluoro-2-hydroxy-3,4-dihydro-2H-benzo[e][1,2]oxaborinine-8-carboxylic acid] yielded an MIC [2] of under 1 µg/mL and an MIC [3] of under 1 µg/mL.
Molecule `O=C(NCCN1CCN(C(=O)N[C@@H](C(=O)N[C@H]2Cc3ccc(F)c(C(=O)O)c3OB2O)c2cc(F)c(O)c(O)c2Cl)C(=O)C1=O)Nc1ccncc1` [Example 221, (R)-3-((R)-2-(2-chloro-5-fluoro-3,4-dihydroxyphenyl)-2-(2,3-dioxo-4-(2-(3-(pyridin-4-yl)ureido)ethyl)piperazine-1-carboxamido)acetamido)-7-fluoro-2-hydroxy-3,4-dihydro-2H-benzo[e][1,2]oxaborinine-8-carboxylic acid] has an MIC [2] of under 1 µg/mL and an MIC [3] of 32 to 64 µg/mL (≈ 42.9 to 85.8 µM).
`O=C(NCCS(=O)(=O)N1CCN(C(=O)N[C@@H](C(=O)N[C@H]2Cc3ccc(F)c(C(=O)O)c3OB2O)c2cc(F)c(O)c(O)c2Cl)C1=O)c1nccs1` [Example 264, (R)-3-((R)-2-(2-chloro-5-fluoro-3,4-dihydroxyphenyl)-2-(2-oxo-3-((2-(thiazole-2-carboxamido)ethyl)sulfonyl)imidazolidine-1-carboxamido)acetamido)-7-fluoro-2-hydroxy-3,4-dihydro-2H-benzo[e][1,2]oxaborinine-8-carboxylic acid] was tested, and the MIC [2] was under 1 µg/mL and the MIC [3] was under 1 µg/mL.
`O=C(O)c1c(F)ccc2c1OB(O)[C@@H](NC(=O)[C@H](NC(=O)N1CCN(CCNC(=O)[C@@H]3CCCN3)C(=O)C1=O)c1cc(F)c(O)c(O)c1Cl)C2` [Example 229, (R)-3-((R)-2-(2-chloro-5-fluoro-3,4-dihydroxyphenyl)-2-(2,3-dioxo-4-(2-((S)-pyrrolidine-2-carboxamido)ethyl)piperazine-1-carboxamido)acetamido)-7-fluoro-2-hydroxy-3,4-dihydro-2H-benzo[e][1,2]oxaborinine-8-carboxylic acid] was tested, and the MIC [2] was under 1 µg/mL and the MIC [3] was under 1 µg/mL.
`CN(CCN1CCN(C(=O)NC(C(=O)N[C@H]2Cc3ccc(F)c(C(=O)O)c3OB2O)c2cc(F)c(O)c(O)c2Cl)C(=O)C1=O)S(=O)(=O)c1ccc(C(N)=O)cc1` (stereo partly drawn) [Example 223, (3R)-3-(2-(4-(2-((4-carbamoyl-N-methylphenyl)sulfonamido)ethyl)-2,3-dioxopiperazine-1-carboxamido)-2-(2-chloro-5-fluoro-3,4-dihydroxyphenyl)acetamido)-7-fluoro-2-hydroxy-3,4-dihydro-2H-benzo[e][1,2]oxaborinine-8-carboxylic acid] showed an EC50 [1] of under 10 µM, an MIC [2] of under 1 µg/mL and an MIC [3] of 2 to 4 µg/mL (≈ 2.43 to 4.86 µM).
In the case of `CN(CCN1CCN(C(=O)N[C@@H](C(=O)N[C@H]2Cc3ccc(F)c(C(=O)O)c3OB2O)c2cc(F)c(O)c(O)c2Cl)C(=O)C1=O)Cc1ccc(C(N)=O)cc1` [Example 226, (R)-3-((R)-2-(4-(2-((4-carbamoylbenzyl)(methyl)amino)ethyl)-2,3-dioxopiperazine-1-carboxamido)-2-(2-chloro-5-fluoro-3,4-dihydroxyphenyl)acetamido)-7-fluoro-2-hydroxy-3,4-dihydro-2H-benzo[e][1,2]oxaborinine-8-carboxylic acid], the EC50 [1] is reported as 10 to 50 µM, the MIC [2] is reported as under 1 µg/mL and the MIC [3] is reported as under 1 µg/mL.
